The values that follow come from patent US20260207637A1, “MODULATOR FOR PROMOTING BINDING OF BUTYROPHILIN 3A1/2A1” (priority 2023, published 2026).

What is called EC50 is the concentration that produces a half-maximal response.

For one data set, the system named is Huh7/FG2 cells. Briefly: EC50 assay of small molecule activated γδ T cells to kill Huh7/FG2 tumor cells. The data set is classed as cell-based. Particulars: γδT cells + Huh7/FG2, E:T=5:1, co-culture 20 hours, 0.05-100 nM, read-out: Huh7 killing (EC50). On the procedure: (§1) γδT cells and Huh7/FG2 tumor cell lines were expanded and cultured in vitro. The Huh7/FG2 cells were digested, and the cells were counted and resuspended in DMEM complete medium, the density of the cell suspension was adjusted and added into a 96-well plate at 5×10^3 cells/100 μL/well for overnight incubation. On the next day, the test compound and the control compound were diluted at a 3-fold ratio with DMSO, and 4 μL of the diluted compound was added to 96 μL of culture medium for 25-fold dilution. 5 μL of 25-fold diluted compound was transferred to the corresponding well which had been plated with tumor cells, and the actual detection concentration was in the range of 0.05-100 nM. γδT cells were resuspended in γδT complete medium, and the density of the cell suspension was adjusted according to the effector-target ratio of E:T=5:1, and then the cell was added to the corresponding well at 2.5×10^4 cells/100 μL/well. After co-culture at 37° C., 5% CO2 for 20 hours, the cells were centrifuged. […] After standing for 18 minutes in the dark, the signal of chemiluminescence was detected. The EC50 value was calculated by four-parameter fitting, with the corresponding signal value of the well with only tumor cells as the minimum killing value, and the corresponding value of the well without tumor cells as the maximum killing value.

A further data set deals with MIApaca/FG2 cells. Briefly: EC50 assay of small molecule activated γδ T cells to kill MIApaca/FG2 tumor cells (3-fold dilution protocol). The class given is cell-based. Particulars: 0.05-100 nM, read-out: MIApaca killing (EC50). How it is done: γδT cells and MIApaca/FG2 tumor cell lines were expanded and cultured in vitro. MIApaca/FG2 cells were digested, and the cells were counted and resuspended in DMEM complete medium, the density of the cell suspension was adjusted and added into a 96-well plate at 5×10^3 cells/100 […]/well for overnight incubation. On the next day, the test compound and the control compound were diluted at a 3-fold ratio with DMSO, and 4 μL of the diluted compound was added to 96 μL of culture medium for 25-fold dilution. 5 μL of 25-fold diluted compound was transferred to the corresponding well which had been plated with tumor cells, and the actual detection concentration was in the range of 0.05-100 nM. γδT cells were resuspended in γδT complete medium, and the density of the cell suspension was adjusted according to the effector-target ratio of E:T=2:1, and then the cell was added to the corresponding well at 1×10^4 cells/100 μL/well. After co-culture at 37° C., 5% CO2 for 20 hours, the cells were centrifuged. The supernatant was removed, and 50 μL of cell lysate containing fluorescein substrate was added to each well. After standing for 18 minutes in the dark, the signal of chemiluminescence was detected. The EC50 value was calculated by four-parameter fitting, with the corresponding signal value of the well with only tumor cells as the minimum killing value, and the corresponding value of the well without tumor cells as the maximum killing value. The killing data of MIApaca/FG2 cells is as follows: […]

For another data set, the system named is MV4-11-luc cells. Briefly: EC50 assay of small molecule activated γδ T cells to kill MV4-11-luc tumor cells. The data set is classed as cell-based. Particulars: γδT cells + MV4-11-luc, E:T=2:1, co-culture 20 hours, 0.05-100 nM, read-out: MV4-11 killing (EC50). How it is done: as §1, with “MV4-11-luc” for “Huh7/FG2”, “IMDM” for “DMEM”, “E:T=2:1,” for “E:T=5:1,”, “1×10^4” for “2.5×10^4”

Data set [1] is described as follows: Stability experiment of compounds in human liver microsomes. The data set is classed as in vitro ADME. Particulars: NADPH, 37° C. The method, boiled down:
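Compounds were incubated with human liver microsomes at 37 °C after reaction start with NADPH (2 mM solution in MgCl2), sampled at 0, 5, 15, 30 and 60 min into precipitant with internal standard. Negative controls lacked NADPH. Remaining compound was quantified by LC-MS/MS to derive half-life.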
A general note: Liver microsomes are a subcellular fraction often used to study metabolism.

Read-outs that look alike come from different tables or passages of the source.

In the case of `C/C(=C\CC[P@@](=O)(N[C@@H](C)C(=O)O[C@@H]1CCOC1)Oc1ccccc1)CO` [Compound 19, (R)-tetrahydrofuran-3-yl ((S)-((R)-5-hydroxy-4-methylpent-3-en-1-yl)(phenoxy)phosphoryl)-L-alaninate], the EC50 was found to be 0.42 nM in the data set with Huh7/FG2 cells; 0.28 nM in the data set on MIApaca/FG2 cells (γδT cells + MIApaca/FG2, E:T=2:1, co-culture 20 hours); 0.004 nM in the data set on MV4-11-luc cells. For the same compound, in data set [1], the “T1/2 in human liver microsomes” value was determined as 47.8 min.

As for `C/C(=C\CCP(=O)(N[C@@H](C)C(=O)OC(C)C)Oc1ccccc1)CO` (stereo partly drawn) [Control compound 1, Isopropyl (((E)-5-hydroxy-4-methylpent-3-en-1-yl)(phenoxy)phosphoryl)-L-alaninate, reference compound], the EC50 turned out to be 1.68 nM in the data set on Huh7/FG2 cells (Homo sapiens, Huh-7); 0.53 nM in the data set with MIApaca/FG2 cells (Homo sapiens, MIA PaCa-2, γδT cells + MIApaca/FG2, E:T=2:1, co-culture 20 hours); 0.05 nM with MV4-11-luc cells (Homo sapiens). In addition, the half-life in data set [1] (read-out: T1/2 in human liver microsomes) came to 8.7 min.
